Source: US5567716A, “Trans and cis traumatic acid salts having cicatrizant activity associated to bacteriostatic, antiviral, antibiotic or antifungal activity” (priority 1992, dated 1996)

Experiments:
[1] = system: psoriatic patients or patients affected by acne, dermatitis seborrheic, neurodermatitis and itches; conditions: trachoma, herpetic keratitis, verruca; cited from earlier work
experimental animal = conditions: topical route; cited from earlier work
Balb/C 3T3 fibroblasts = assay: Cell growth of Balb/C 3T3 fibroblasts, crystal violet colorimetry (1.1b); type: cell-based, Mouse; conditions: for cell growth t2/t1: 48 h/24 h, control 76.776
Procedure: Mouse Balb/C 3T3 fibroblasts were grown in DMEM medium supplemented with penicillin (100 units/ml) and streptomycin (0.1 mg/ml). For experimental purposes, cells are routinely inoculated in […] diameter culture dishes (5000cells/dish) and cultured overnight.
The compounds to be tested are solubilized in DMEM+10%FCS and DMSO to obtain the final concentration of 10^-5 M, 10^-6 M e 10^-7 M in 0.05% DMSO.
The cells number is measured 4, 24 and 48 hours after seeding. The cell growth is evaluated as t2/t1 ratio (%).

herpetic keratitis = conditions: topic and systemic administration; cited from earlier work
man = conditions: burns therapy; cited from earlier work
3T3 fibroblasts = assay: Cellular proliferation of 3T3 fibroblasts, neutral red colorimetry (1.1a); type: cell-based, Mice
Procedure: Experiments on 3T3 fibroblasts
Mice 3T3 fibroblasts cultures sown at a 40.000/ml concentration on plates having 6 wells in a DMEM culture medium enriched with 10% calf serum are used. After 24 hours culture, the 90 prepared wells are divided in order to allow the analyses of the compounds of the invention, every compound to be tested being used respectively at a concentration of 0.1, 1 and 10 μg/ml by subsequent evaluations after 48 and 72 hours of incubation.
Hexadecyltrimethylammoniun (ETA) traumatare: solubilized in water and brought to the desired final concentrations of 0.1. 1 and 10 μg/ml by progressive dilutions;
Ethanolamine traumatate: solubilized in water and brought to the final concentrations of 0.1, 1 and 10 μg/ml by progressive dilutions;
Traumatic acid: neutralized with sodium hydroxyde and solubilized in water, then brought to the final concentrations of 0.1, 1 and 10 μg/ml by progressive dilutions with the culture medium.
The compounds are added to the cells after 24 hours culture. The cells number is measured by colorimetry with the neutral red intravital stain after 24, 48, 72 hours of incubation.

SMILES: O=C(O)/C=C/CCCCCCCCC(=O)O [traumatic acid, 10-dodecendioic]
- clinical results [1]: Positive clinical results
- reepithelializing and antiirritant action (experimental animal): reepithelializing and antiirritant action
- Cell density (Balb/C 3T3 fibroblasts; 4 h (t0), 10^-5M, control 0.300): 0.478
- Cell density (Balb/C 3T3 fibroblasts; 4 h (t0), 10^-6M, control 0.300): 0.495
- Cell density (Balb/C 3T3 fibroblasts; 4 h (t0), 10^-7M, control 0.300): 0.459
- Cell density (Balb/C 3T3 fibroblasts; 24 h (t1), 10^-5M, control 0.481): 0.317
- Cell density (Balb/C 3T3 fibroblasts; 24 h (t1), 10^-6M, control 0.481): 0.320
- Cell density (Balb/C 3T3 fibroblasts; 24 h (t1), 10^-7M, control 0.481): 0.323
- Cell density (Balb/C 3T3 fibroblasts; 48 h (t2), 10^-5M, control 0.849): 0.657
- Cell density (Balb/C 3T3 fibroblasts; 48 h (t2), 10^-6M, control 0.849): 0.657
- Cell density (Balb/C 3T3 fibroblasts; 48 h (t2), 10^-7M, control 0.849): 0.740
- cell growth t2/t1 (Balb/C 3T3 fibroblasts; 10^-5M): 112.273%
- cell growth t2/t1 (Balb/C 3T3 fibroblasts; 10^-6M): 95.638%
- cell growth t2/t1 (Balb/C 3T3 fibroblasts; 10^-7M): 135.554%
- effect on herpetic keratitis model (herpetic keratitis): effectiveness on an in vivo herpetic keratitis model both after topic and systemic administration
- reepithelialization times (man): reduces the reepithelialization times
- effect on cells proliferation (3T3 fibroblasts; 0.1 μg/ml, in words): able to affect cells proliferation according to a not statistically significant trend
- effect on cellular proliferation (3T3 fibroblasts; 1 μg/ml, in words, ETA salt > ethanolamine salt = traumatic acid): able to increase cellular proliferation
- cells numeration (colorimetric, neutral red) (3T3 fibroblasts; 24 hours of incubation, 0.1 (head: μg/ml), control 0.579 ± 0.021): 0.486 ± 0.029
- cells numeration (colorimetric, neutral red) (3T3 fibroblasts; 24 hours of incubation, 1.0 (head: μg/ml), control 0.579 ± 0.021): 0.510 ± 0.008
- cells numeration (colorimetric, neutral red) (3T3 fibroblasts; 24 hours of incubation, 10.0 (head: μg/ml), control 0.579 ± 0.021): 0.543 ± 0.019
- cells numeration (colorimetric, neutral red) (3T3 fibroblasts; 48 hours of incubation, 0.1 (head: μg/ml), control 1.334 ± 0.050): 1.497 ± 0.087
- cells numeration (colorimetric, neutral red) (3T3 fibroblasts; 48 hours of incubation, 1.0 (head: μg/ml), control 1.334 ± 0.050): 1.431 ± 0.047
- cells numeration (colorimetric, neutral red) (3T3 fibroblasts; 48 hours of incubation, 10.0 (head: μg/ml), control 1.334 ± 0.050, ** p < 0.01 significant reduction): 1.442 ± 0.060
- cells numeration (colorimetric, neutral red) (3T3 fibroblasts; 72 hours of incubation, 0.1 (head: μg/ml), control 2.360 ± 0.125): 2.492 ± 0.070
- cells numeration (colorimetric, neutral red) (3T3 fibroblasts; 72 hours of incubation, 1.0 (head: μg/ml), control 2.360 ± 0.125): 2.349 ± 0.125
- cells numeration (colorimetric, neutral red) (3T3 fibroblasts; 72 hours of incubation, 10.0 (head: μg/ml), control 2.360 ± 0.125, ** p < 0.01 significant reduction): 2.446 ± 0.128
- time necessary for the cells to reach the confluence (3T3 fibroblasts; side control experiment, ETA and ethanolamine salts > traumatic acid): reduce the time normally necessary for the cells to reach the confluence
